Measured values: PubChem BioAssay AID1259407 (Chemical Carcinogenesis Research Information System (CCRIS), 2018)
Active and inactive are the calls of the source. How the calls were made is not given here.

Tested on: CCRIS mutagenicity, Ames/micronucleus/aberration tests
Assay: CCRIS mutagenicity studies
Settings: Test System: AMES SALMONELLA TYPHIMURIUM, Method: PREINCUBATION
[1] = Strain/Indicator: TA98, Metabolic Activation: NONE
[2] = Strain/Indicator: TA100, Metabolic Activation: NONE
[3] = Strain/Indicator: TA98, Metabolic Activation: RAT, LIVER, S-9, KANECHLOR 500

Structure (SMILES)	mutagenic call [1]	mutagenic call (Strain/Indicator: TA98, Metabolic Activation: RAT, LIVER, S-9, PHENOBARBITAL AND 5,6-BENZOFLAVONE)	mutagenic call [2]	mutagenic call (Strain/Indicator: TA100, Metabolic Activation: RAT, LIVER, S-9, PHENOBARBITAL AND 5,6-BENZOFLAVONE)	mutagenic call [3]	mutagenic call (Strain/Indicator: TA100, Metabolic Activation: RAT, LIVER, S-9, KANECHLOR 500)	mutagenic call (Strain/Indicator: TA98, Metabolic Activation: HAMSTER, LIVER, S-9, AROCLOR 1254 (10%))	mutagenic call (Strain/Indicator: TA98, Metabolic Activation: RAT, LIVER, S-9, AROCLOR 1254 (10%))	mutagenic call (Strain/Indicator: TA100, Metabolic Activation: HAMSTER, LIVER, S-9, AROCLOR 1254 (10%))	mutagenic call (Strain/Indicator: TA100, Metabolic Activation: RAT, LIVER, S-9, AROCLOR 1254 (10%))	mutagenic call (Strain/Indicator: TA1535, Metabolic Activation: HAMSTER, LIVER, S-9, AROCLOR 1254 (10%))	mutagenic call (Strain/Indicator: TA1535, Metabolic Activation: NONE)	mutagenic call (Strain/Indicator: TA1535, Metabolic Activation: RAT, LIVER, S-9, AROCLOR 1254 (10%))	mutagenic call (Strain/Indicator: TA1537, Metabolic Activation: HAMSTER, LIVER, S-9, AROCLOR 1254 (10%))	mutagenic call (Strain/Indicator: TA1537, Metabolic Activation: NONE)	mutagenic call (Strain/Indicator: TA1537, Metabolic Activation: RAT, LIVER, S-9, AROCLOR 1254 (10%))
Cc1c(N)cccc1N=[N+]([O-])c1cccc(N)c1C	inactive; negative	active; positive	inactive; negative	inactive; negative	–	–	–	–	–	–	–	–	–	–	–	–
CCc1ccc([N+](=O)[O-])cc1	inactive; negative	–	inactive; negative	–	inactive; negative	inactive; negative	–	–	–	–	–	–	–	–	–	–
NNc1ccccc1[N+](=O)[O-]	active; positive	–	active; positive	–	active; positive	–	–	–	–	–	–	–	–	–	–	–
CCCCCCCCCCCCOS(=O)(=O)O	inactive; negative	–	inactive; negative	–	–	–	inactive; negative	inactive; negative	inactive; negative	inactive; negative	inactive; negative	inactive; negative	inactive; negative	inactive; negative	inactive; negative	inactive; negative
